This is an account of results in paper PMC9014320 (Computational and Structural Biotechnology Journal, 2022).

The structures appear in SMILES notation.

One experiment deals with rP2X2^gain. Conditions: rP2X2^gain versus rP2X3^WT.
The next experiment relates to P2X4. The conditions noted are these: cited from earlier work.
In another experiment the test system is P2X1. The conditions noted are these: cited from earlier work.
A further experiment has as its system P2X5. The conditions noted are these: cited from earlier work.
The test system of a further experiment is P2X7. Conditions: cited from earlier work.
In another experiment the test system is cP2X3^WT. In words: Patch-clamp recording of ATP current, cP2X3 WT in HEK293 cells. Format: cell-based, chicken. Conditions: AF-219 30 μM. In general terms: The patch-clamp technique gives a direct electrical read-out from membranes.
The next experiment concerns cP2X3^A196G. In words: Patch-clamp recording of ATP current, cP2X3 A196G in HEK293 cells. In kind it is cell-based, chicken. Conditions: AF-219 30 μM.
The test system of the next experiment is rP2X3^L191A. The conditions noted are these: cited from earlier work.
The next experiment deals with P2X3 receptors. Conditions: read-out: IC50, the concentration yielding half of the maximal inhibition; cited from earlier work.
The next experiment has as its system P2X2. The conditions noted are these: cited from earlier work.

`CCC(C)c1cc(OC)c(Cl)cc1Oc1cnc(N)nc1N` (stereo not shown) [AF-219-2, 5-(2-(sec-butyl)-5-chloro-4-methoxyphenoxy)pyrimidine-2,4-diamine]: in the experiment with rP2X2^gain, the “Fold increase of IC50 for rP2X2^gain over rP2X3^WT” value was determined as 18 fold.

With `COc1cc(C(C)C)c(Oc2cnc(N)nc2N)cc1S(N)(=O)=O` [AF-219], the IC50 in the experiment with P2X4 is above 10 µM; in the experiment on P2X1, above 10 µM; in the experiment on P2X5, above 10 µM; in the experiment on P2X7, above 10 µM; on P2X3 receptors it was 0.0426 ± 0.0029 µM; in the experiment with P2X2, above 10 µM. Moreover, in the experiment on cP2X3^WT, the “Effect on the ATP (10 μM)-current of cP2X3^WT” value is “no inhibitory effect”. Also, in the experiment on cP2X3^A196G, the “Effect on the ATP (10 μM)-current of cP2X3^A196G” value is on record as “significantly inhibited”. Further, in the experiment on rP2X3^L191A, the “Inhibition of rP2X3^L191A” value was “almost fully abolished the inhibition”.
